In patent US9796711B2, “Substituted pyrazolo[3,4-b]pyridin-6-carboxylic acids and method of use” (AbbVie S.àr.l., priority 2015, dated 2017):

Assays:
ΔF508-CFTR [1] = biological target: T1, ΔF508-CFTR (Homo sapiens, UniProt P13569, DEL508-508); test: CFTR cell surface levels using HRP-tagged ΔF508-CFTR expressing CFBE cells, in the presence of a co-corrector; assay type: cell-based
T1 construct: host or cells: CFBE41o-, doxycycline-inducible
Procedure, shortened: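 Cells were seeded with 0.5 μg/mL doxycycline and held 68 h at 37 °C. Test compounds plus 3 μM co-corrector (final 0.1% DMSO) were then added for 20 h at 33 °C. Washed cells received HRP substrate, and luminescence was normalized between DMSO and 3 μM co-corrector controls.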

ΔF508-CFTR [2] = biological target: T1, ΔF508-CFTR; test: CFTR cell surface levels using HRP-tagged ΔF508-CFTR expressing CFBE cells, intrinsic corrector capacity; assay type: cell-based
Procedure, shortened: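 Here the cells express ΔF508-CFTR with horseradish peroxidase inserted in extracellular loop 4, so only rescued channel at the surface gives luminescent signal. Compounds act on their own, 20 h at the reduced temperature of 33 °C; values are percent activity relative to DMSO and a 3 μM corrector.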

[3] = HRP-tagged ΔF508-CFTR expressing CFBE cells, in the presence of 3 μM co-corrector
[4] = HRP-tagged ΔF508-CFTR expressing CFBE cells, in the presence of 3 μM co-corrector, read-out: EC50
[5] = HRP-tagged ΔF508-CFTR expressing CFBE cells, intrinsic corrector capacity (no co-corrector), 33° C., 20 hours
[6] = HRP-tagged ΔF508-CFTR expressing CFBE cells, intrinsic corrector capacity (no co-corrector), 33° C., 20 hours, read-out: EC50
[7] = HRP-tagged ΔF508-CFTR CFBE41o- cells, compounds alone (intrinsic corrector capacity), 20 hours at 33° C., positive control 3 μM corrector
[8] = HRP-tagged ΔF508-CFTR CFBE41o- cells, compounds alone (intrinsic corrector capacity), 20 hours at 33° C., read-out: EC50

T1 sequence (P13569 with tags, fused parts or gaps DEL508-508): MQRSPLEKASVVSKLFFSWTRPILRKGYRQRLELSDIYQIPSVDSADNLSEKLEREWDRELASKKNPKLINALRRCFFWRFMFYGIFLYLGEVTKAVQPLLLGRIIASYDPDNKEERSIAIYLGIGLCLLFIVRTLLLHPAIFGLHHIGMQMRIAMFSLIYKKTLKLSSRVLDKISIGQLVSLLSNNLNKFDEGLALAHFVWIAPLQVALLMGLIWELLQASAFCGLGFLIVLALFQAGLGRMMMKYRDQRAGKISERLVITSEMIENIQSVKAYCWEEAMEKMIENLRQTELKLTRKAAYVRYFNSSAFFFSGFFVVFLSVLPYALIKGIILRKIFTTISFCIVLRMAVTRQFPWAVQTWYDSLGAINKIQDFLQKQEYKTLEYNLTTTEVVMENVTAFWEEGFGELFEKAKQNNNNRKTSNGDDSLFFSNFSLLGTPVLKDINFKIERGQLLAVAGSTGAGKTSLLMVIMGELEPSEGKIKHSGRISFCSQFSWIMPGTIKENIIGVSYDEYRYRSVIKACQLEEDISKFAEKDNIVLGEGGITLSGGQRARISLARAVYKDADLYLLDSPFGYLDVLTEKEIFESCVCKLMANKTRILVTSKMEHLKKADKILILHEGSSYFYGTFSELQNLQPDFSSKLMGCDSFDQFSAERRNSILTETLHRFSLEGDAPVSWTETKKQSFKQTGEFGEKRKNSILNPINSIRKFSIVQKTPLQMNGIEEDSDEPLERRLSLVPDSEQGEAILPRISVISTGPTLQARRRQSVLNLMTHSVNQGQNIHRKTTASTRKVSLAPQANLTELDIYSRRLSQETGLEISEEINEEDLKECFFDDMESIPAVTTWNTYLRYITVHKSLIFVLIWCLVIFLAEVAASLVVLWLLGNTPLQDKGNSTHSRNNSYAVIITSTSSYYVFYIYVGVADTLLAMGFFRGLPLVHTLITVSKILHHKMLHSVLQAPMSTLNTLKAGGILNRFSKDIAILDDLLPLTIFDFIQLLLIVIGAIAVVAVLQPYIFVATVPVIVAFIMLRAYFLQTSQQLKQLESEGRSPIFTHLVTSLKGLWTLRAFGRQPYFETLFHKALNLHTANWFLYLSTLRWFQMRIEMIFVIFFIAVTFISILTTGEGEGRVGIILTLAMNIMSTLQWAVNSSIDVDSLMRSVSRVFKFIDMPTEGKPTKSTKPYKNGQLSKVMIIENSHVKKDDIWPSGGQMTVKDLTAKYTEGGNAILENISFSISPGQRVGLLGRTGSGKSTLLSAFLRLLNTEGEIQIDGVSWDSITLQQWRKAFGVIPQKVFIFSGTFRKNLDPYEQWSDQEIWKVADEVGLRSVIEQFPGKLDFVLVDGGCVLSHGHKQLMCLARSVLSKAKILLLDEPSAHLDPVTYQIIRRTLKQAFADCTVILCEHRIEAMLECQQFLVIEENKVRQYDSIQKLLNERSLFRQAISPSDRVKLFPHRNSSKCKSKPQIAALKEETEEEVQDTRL

SMILES | % Activation (ΔF508-CFTR [1]; [3]) [%] | EC50 (ΔF508-CFTR [1]; [4]) [µM] | % Activation (ΔF508-CFTR [2]; HRP-tagged ΔF508-CFTR CFBE cells, compound alone (intrinsic corrector capacity), 20 hours at 33° C.) [%] | EC50 (ΔF508-CFTR [2]; HRP-tagged ΔF508-CFTR CFBE cells, compound alone (intrinsic corrector capacity), 20 hours at 33° C., read-out: EC50) [µM] | % Activation (ΔF508-CFTR [2]; [5]) [%] | EC50 (ΔF508-CFTR [2]; [6]) [µM] | % Activation (ΔF508-CFTR [2]; [7]) [%] | EC50 (ΔF508-CFTR [2]; [8]) [µM] | EC50 (ΔF508-CFTR [1]) [µM] | EC50 (ΔF508-CFTR [2]) [µM]
CCOC(=O)N1CCN(c2cc(C(=O)O)nc3c2c(C2CCC2)nn3-c2ccc(F)cc2)CC1 [compound 929, 3-cyclobutyl-4-[4-(ethoxycarbonyl)piperazin-1-yl]-1-(4-fluorophenyl)-1H-pyrazolo[3,4-b]pyridine-6-carboxylic acid] | 560 | 0.0833 | 474.3 | 0.181 |  |  |  |  |  | 
CC(C)(C)OC(=O)N1CCC(Oc2nn(-c3ccccc3)c3nc(C(=O)O)cc(-c4ccc(N5CCC(C#N)CC5)nc4)c23)C1 (stereo not shown) [compound 552, 3-{[1-(tert-butoxycarbonyl)pyrrolidin-3-yl]oxy}-4-[6-(4-cyanopiperidin-1-yl)pyridin-3-yl]-1-phenyl-1H-pyrazolo[3,4-b]pyridine-6-carboxylic acid] | 396.65 | 0.396 |  |  | 156.1 | 0.37 |  |  |  | 
CC(C)c1nn(-c2cccc(N3CCOCC3)c2)c2nc(C(=O)O)cc(-c3ccc(N4CCC(C#N)CC4)cc3)c12 [compound 206, 4-[4-(4-cyanopiperidin-1-yl)phenyl]-1-[3-(morpholin-4-yl)phenyl]-3-(propan-2-yl)-1H-pyrazolo[3,4-b]pyridine-6-carboxylic acid] | 661.63 | 0.246 |  |  |  |  | 466.87 | 0.323 |  | 
CC(C)(C)OC(=O)NC[C@@H]1CCN(c2cc(C(=O)O)nc3c2c(C2CCC2)nn3-c2ccccc2)C1 [compound 671, 4-[(3S)-3-{[(tert-butoxycarbonyl)amino]methyl}pyrrolidin-1-yl]-3-cyclobutyl-1-phenyl-1H-pyrazolo[3,4-b]pyridine-6-carboxylic acid] | 357.4 |  |  |  | 190.1 |  |  |  | 0.943 | 1.61
COC1CCC(Oc2cc(C(=O)O)nc3c2c(C)nn3-c2ccccc2)CC1 (stereo not shown) [compound 376, 4-[(4-methoxycyclohexyl)oxy]-3-methyl-1-phenyl-1H-pyrazolo[3,4-b]pyridine-6-carboxylic acid] | 289.4 | 1.14 |  |  |  |  | 109.7 | 1.61 |  | 
COCCOCC1(F)CCCN(c2cc(C(=O)O)nc3c2c(C2CCC2)nn3-c2ccccc2)C1 (stereo not shown) [compound 462, 3-cyclobutyl-4-{3-fluoro-3-[(2-methoxyethoxy)methyl]piperidin-1-yl}-1-phenyl-1H-pyrazolo[3,4-b]pyridine-6-carboxylic acid] | 316.85 | 0.318 |  |  | 156.2 | 0.486 |  |  |  | 
CC(C)c1nn(-c2ccccc2)c2nc(C(=O)O)cc(-c3cnc(N4CCOCC4)nc3)c12 [compound 79, 4-[2-(morpholin-4-yl)pyrimidin-5-yl]-1-phenyl-3-(propan-2-yl)-1H-pyrazolo[3,4-b]pyridine-6-carboxylic acid] | 256.45 | 5.28 |  |  |  |  | 195.9 | 0.697 |  | 
Cc1nn(-c2ccccc2)c2nc(C(=O)O)cc(N3CCC(F)(F)C3)c12 [compound 299, 4-(3,3-difluoropyrrolidin-1-yl)-3-methyl-1-phenyl-1H-pyrazolo[3,4-b]pyridine-6-carboxylic acid] | 194.8 | 2.51 |  |  |  |  | 51.845 | 2.51 |  | 
CC(C)OC1CCN(c2cc(C(=O)O)nc3c2c(C2CCC2)nn3-c2ccccc2)CC1 [compound 372, 3-cyclobutyl-1-phenyl-4-{4-[(propan-2-yl)oxy]piperidin-1-yl}-1H-pyrazolo[3,4-b]pyridine-6-carboxylic acid] | 388.6 | 0.127 |  |  |  |  | 179 | 0.262 |  | 
COCCN1CCN(C2CCN(c3cc(C(=O)O)nc4c3c(C3CCC3)nn4-c3ccc(F)cc3)CC2)CC1 [compound 896, 3-cyclobutyl-1-(4-fluorophenyl)-4-{4-[4-(2-methoxyethyl)piperazin-1-yl]piperidin-1-yl}-1H-pyrazolo[3,4-b]pyridine-6-carboxylic acid] | 513.5 | 0.7 |  |  | 358.8 | 1.63 |  |  |  | 
COCCN(C)C1CCN(c2cc(C(=O)O)nc3c2c(C2CCC2)nn3-c2ccc(F)cc2)CC1 [compound 895, 3-cyclobutyl-1-(4-fluorophenyl)-4-{4-[(2-methoxyethyl)(methyl)amino]piperidin-1-yl}-1H-pyrazolo[3,4-b]pyridine-6-carboxylic acid] | 429.4 | 3.33 |  |  | 178.2 | 1.28 |  |  |  | 
O=C(O)c1cc(CN2CCOCC2)c2c(C3CCC3)nn(-c3ccc(F)cc3)c2n1 [compound 857, 3-cyclobutyl-1-(4-fluorophenyl)-4-[(morpholin-4-yl)methyl]-1H-pyrazolo[3,4-b]pyridine-6-carboxylic acid] | 232.2 | 2.44 |  |  | 60.01 | 3.33 |  |  |  | 
CN(C)CCC1CCN(c2cc(C(=O)O)nc3c2c(C2CCC2)nn3-c2ccccc2)CC1 [compound 447, 3-cyclobutyl-4-{4-[2-(dimethylamino)ethyl]piperidin-1-yl}-1-phenyl-1H-pyrazolo[3,4-b]pyridine-6-carboxylic acid] | 415.6 | 0.724 |  |  | 243.3 | 1.12 |  |  |  | 
CN(C[C@@H]1CCN(c2cc(C(=O)O)nc3c2c(C2CCC2)nn3-c2ccccc2)C1)C(=O)OC(C)(C)C [compound 674, 4-[(3R)-3-{[(tert-butoxycarbonyl)(methyl)amino]methyl}pyrrolidin-1-yl]-3-cyclobutyl-1-phenyl-1H-pyrazolo[3,4-b]pyridine-6-carboxylic acid] | 323.85 | 0.38 |  |  | 158.5 | 0.521 |  |  |  | 
CC(C)c1nn(-c2ccc(F)cc2)c2nc(C(=O)O)cc(N3CC[C@@H](N4CCCCC4)C3)c12 [compound 786, 1-(4-fluorophenyl)-4-[(3R)-3-(piperidin-1-yl)pyrrolidin-1-yl]-3-(propan-2-yl)-1H-pyrazolo[3,4-b]pyridine-6-carboxylic acid] | 221.6 | 0.907 |  |  | 67.03 | 1.16 |  |  |  | 
CC(C)c1nn(C2CCCCC2)c2nc(C(=O)O)cc(-c3ccc(N4CCCC(F)C4)nc3)c12 (stereo not shown) [compound 223, 1-cyclohexyl-4-[6-(3-fluoropiperidin-1-yl)pyridin-3-yl]-3-(propan-2-yl)-1H-pyrazolo[3,4-b]pyridine-6-carboxylic acid] | 484.45 | 0.687 |  |  |  |  | 246.95 | 0.714 |  | 
O=C(O)c1cc(N2CC(N3CCCCC3)C2)c2c(C3CCC3)nn(-c3ccccc3)c2n1 [compound 466, 3-cyclobutyl-1-phenyl-4-[3-(piperidin-1-yl)azetidin-1-yl]-1H-pyrazolo[3,4-b]pyridine-6-carboxylic acid] | 271.1 | 1.29 |  |  | 116.25 | 2.33 |  |  |  | 
CC1CN(c2ccc(-c3cc(C(=O)O)nc4c3c(C(C)C)nn4C3CCCCC3)cn2)CC(C)O1 (stereo not shown) [compound 196, 1-cyclohexyl-4-[6-(2,6-dimethylmorpholin-4-yl)pyridin-3-yl]-3-(propan-2-yl)-1H-pyrazolo[3,4-b]pyridine-6-carboxylic acid] | 520.8 | 0.596 |  |  |  |  | 251.45 | 0.555 |  | 
CO[C@H]1C[C@@H](c2nn(-c3ccccc3)c3nc(C(=O)O)cc(-c4ccc(N5CCC(C#N)CC5)nc4)c32)C1 [compound 421, 4-[6-(4-cyanopiperidin-1-yl)pyridin-3-yl]-3-(cis-3-methoxycyclobutyl)-1-phenyl-1H-pyrazolo[3,4-b]pyridine-6-carboxylic acid] | 368.65 | 0.723 |  |  | 184.4 | 1.29 |  |  |  | 
CN(c1cc(C(=O)O)nc2c1c(C1CCC1)nn2-c1ccccc1)[C@H]1C[C@@H](OC(C)(C)C)C1 [compound 439, 4-[(cis-3-tert-butoxycyclobutyl)(methyl)amino]-3-cyclobutyl-1-phenyl-1H-pyrazolo[3,4-b]pyridine-6-carboxylic acid] | 312.85 | 1.11 |  |  | 120.85 | 1.12 |  |  |  | 
O=C(O)c1cc(OCCN2CCCCCC2)c2c(C3CCC3)nn(-c3ccccc3)c2n1 [compound 643, 4-[2-(azepan-1-yl)ethoxy]-3-cyclobutyl-1-phenyl-1H-pyrazolo[3,4-b]pyridine-6-carboxylic acid] | 271.8 | 1.26 |  |  | 95.84 | 2.9 |  |  |  | 
C[C@@H](CN(C)C)Oc1cc(C(=O)O)nc2c1c(C1CCC1)nn2-c1ccccc1 [compound 615, 3-cyclobutyl-4-{[(2S)-1-(dimethylamino)propan-2-yl]oxy}-1-phenyl-1H-pyrazolo[3,4-b]pyridine-6-carboxylic acid] | 216.65 | 2.33 |  |  | 44.6 | 3.33 |  |  |  | 
